Test results as given in patent publication US9199977B2, “Crystal having crystal habits and pharmaceutical composition obtained by processing the crystal” (POLA PHARMA INC., priority 2012, dated 2015).

Columns and labels:
[1] = Elution or dissolution test of luliconazole crystals in anhydrous ethanol; assay type: physicochemical; details: 1 g luliconazole in 500 mL anhydrous ethanol, constant stirring, room temperature
Description: (§1) Ethanol containing 10% water was added to luliconazole, followed by being heated, stirred, and filtrated while applying the heat. A filtrate was quickly cooled with an ice bath and the wall surface was scraped with a spatula to perform the recrystallization. Crystals were collected by filtration, followed by being dried by using phosphorus pentaoxide to obtain Crystal 1 of the present invention. In distinct Comparative Example, the same process or treatment was performed while replacing the solvent with a mixture of ethyl acetate/n-hexane (5:1) to obtain Crystal of Comparative Example. The elution or dissolution test was performed for the two types of the crystals to investigate the elution or dissolution profile. After confirming the dissolution of all crystals, the Z isomer and the SE isomer, which were the isomers generated or formed in the solution, were analyzed and quantitatively measured by HPLC assay.
(§2) In the elution or dissolution test, 500 mL of anhydrous ethanol was used as the solvent, and 1 g of luliconazole was dissolved under constant stirring at room temperature. The time, which was required for the dissolution, was simultaneously measured. According to Table 1, it is appreciated that the time required for the dissolution is short for Crystal 1, and thus the generation of the Z isomer and the SE isomer as the isomers is suppressed in the dissolving step.

[2] = HPLC quantification of Z and SE isomers generated in the solution after dissolution; assay type: physicochemical; details: in ethanol solution after dissolution of all crystals
Description: as §1, §2
The condition for HPLC was as follows. Column: CHIRALCEL OD-RH 4.6×150 mm, column temperature: 35° C., mobile phase: mixture of methanol/2% aqueous solution of potassium hexafluorophosphate (85:15, v/v), flow rate: 0.6 mL/min., detection: 295 nm).

Compound | Time required until dissolution [1] [min] | Amount of generation of SE isomer [2] [%] | Amount of generation of Z isomer [2] [%]
N#C/C(=C1/SC[C@@H](c2ccc(Cl)cc2Cl)S1)n1ccnc1 [Crystal 1, luliconazole] | 200 | 0.06 | 0.06
N#C/C(=C1/SC[C@@H](c2ccc(Cl)cc2Cl)S1)n1ccnc1 [Crystal of Comp. Ex., luliconazole] | 300 | 0.09 | 0.13
